Where two headings read alike, the source gives them in different places.
Legend:
HFD C57/BL6 mice [1] = experiment: Oral glucose tolerance test (OGTT) after 4 weeks of oral treatment in high fat diet mice; type: in vivo
Method: FIG. 3: NC or HFD C57/BL6 mice were gavaged daily with saline or one of three doses of Rivaroxaban (1, 2.5 or 5; n=5 per group) for 4 weeks. Graphs show oral glucose tolerance test (OGTT) (1.5 g/kg) after 4 weeks of chronic treatment with Rivaroxaban. NC-NaCl: control C57/BL6 mice fed with normal chow and gavaged with saline for 4 weeks. HFD-NaCl: control C57/BL6 mice fed with high fat diet and gavaged with saline for 4 weeks. HFD-X1 mg/kg: C57/BL6 mice fed with high fat diet and gavaged with 1 mg/kg Rivaroxaban for 4 weeks. HFD-X2.5 mg/kg: C57/BL6 mice fed with high fat diet and gavaged with 2.5 mg/kg Rivaroxaban for 4 weeks. HFD-X5 mg/kg: C57/BL6 mice fed with high fat diet and gavaged with 5 mg/kg Rivaroxaban for 4 weeks.
(§1) FIG. 4: NC or HFD C57/BL6 mice were gavaged daily with saline or one of four doses of Rivaroxaban (1, 2.5 or 5; n=5 per group) for 4 weeks. Histograms show glucose intolerance corresponding index (μM/min) from 30 min to 90 min after glucose administration. NC saline: control C57/BL6 mice fed with normal chow and gavaged with saline for 4 weeks. HFD saline: control C57/BL6 mice fed with high fat diet and gavaged with saline for 4 weeks. HFD+X1: C57/BL6 mice fed with high fat diet and gavaged with 1 mg/kg Rivaroxaban for 4 weeks. HFD+X2.5: C57/BL6 mice fed with high fat diet and gavaged with 2.5 mg/kg Rivaroxaban for 4 weeks. HFD+X5: C57/BL6 mice fed with high fat diet and gavaged with 5 mg/kg Rivaroxaban for 4 weeks. Data were analyzed by either one or two-way ANOVA with Tukey's multiple comparison tests and presented as mean±S.E.M. *P<0.05, **P<0.01, ***P<0.001.
FIG. 5: NC or HFD C57/BL6 mice were gavaged daily with saline or one of […] of Rivaroxaban (1, 2.5 or 5; n=5 per group) for 4 weeks. Histograms show diabetes and glucose intolerance corresponding index (μM/min) from 30 min before to 90 min after glucose administration. NC saline: control C57/BL6 mice fed with normal chow and gavaged with saline for 4 weeks. HFD saline: control C57/BL6 mice fed with high fat diet and gavaged with saline for 4 weeks. […] Data were analyzed by either one or two-way ANOVA with Tukey's multiple comparison tests and presented as mean±S.E.M. *P<0.05, **P<0.01, ***P<0.001. […]
(§2) An Oral Glucose Tolerance Test (OGTT) was performed on 6-hfasted mice. […] Glycemia was measured with a glucometer (Roche Diagnostics) from blood collected at the tail vein 30 min before the glucose […] and 15, 30, 60, 90 and 120 min after the gavage. The glucose tolerance index was calculated by adding the glycemic values from 30 to 90 min after glucose gavage divided by the corresponding duration.
(§3) After 4 weeks of treatment the inventors measured fasting glycaemia and glucose intolerance (FIGS. 7 and 8).

[2] = low = typically inferior or equal to 20%, cited from earlier work
HFD C57/BL6 mice [3] = experiment: Fasting glycemia after 4 weeks of oral treatment in high fat diet mice; type: in vivo
Method: as §1, with “2:” for “4:”, “three” for “four”, “fasting glycemia” for “glucose intolerance corresponding index (μM/min) from 30 min to 90 min”, “4 weeks of chronic treatment with Rivaroxaban.” for “glucose administration.”, “***P<0.001. […]” for “***P<0.001.”
as §2, §3

mouse model of diabetes = settings: administered into a mouse model of diabetes; cited from earlier work
HFD mice = experiment: Bacterial translocation: 16S rDNA copies in mesenteric adipose tissue of HFD mice; type: in vivo; settings: Rivaroxaban 0.2, 0.5 and 1 mg/kg oral gavage daily, 4 weeks, vs non-treated HFD mice, FIG. 6
Method: To explore whether intestinal FXa inhibition regulates intestinal permeability the inventors have treated HFD mice daily during 4 weeks with 3 different doses of Rivaroxaban by oral gavage. The inventors chose low Rivaroxaban concentrations (0.2, 0.5 and 1 mg/kg) to have an intestinal effect only and avoid systemic anti-coagulation. After 4 weeks of treatment the number of 16S rDNA copies was measured in mesenteric adipose tissue in order to evaluate bacterial translocation.

Compound: COC(=O)[C@H](Cc1cccc(C(=N)N)c1)[C@@H](C)NC(=O)c1ccc(-c2cc[n+]([O-])cc2)cc1 [Otamixaban, otamixaban]
- glucose intolerance (OGTT) (HFD C57/BL6 mice [1]; Otamixaban 1 and 5 mg/kg oral gavage, FIG. 8): reduces glucose intolerance
- oral bioavailability [2]: low bioavailability
- oral bioavailability ([2]; listed as otamixaban): low oral bioavailability
- fasting glycaemia (HFD C57/BL6 mice [3]; HFD mice, Otamixaban 1 and 5 mg/kg oral gavage, FIG. 7): reduces fasting glycaemia

Compound: CO[C@H]1O[C@H](COS(=O)(=O)O)[C@@H](O[C@@H]2O[C@@H](C(=O)O)[C@@H](O[C@H]3O[C@H](COS(=O)(=O)O)[C@@H](O[C@@H]4O[C@H](C(=O)O)[C@@H](O[C@H]5O[C@H](COS(=O)(=O)O)[C@@H](OC)[C@H](OC)[C@H]5NC(=O)CCCCCNC(=O)CCCC[C@@H]5SC[C@@H]6NC(=O)N[C@@H]65)[C@H](OC)[C@H]4OC)[C@H](OS(=O)(=O)O)[C@H]3OS(=O)(=O)O)[C@H](OC)[C@H]2OC)[C@H](OS(=O)(=O)O)[C@H]1OS(=O)(=O)O [idrabiotaparinux]
- oral bioavailability [2]: low oral bioavailability

Compound: CO[C@H]1O[C@H](COS(=O)(=O)O)[C@@H](O[C@@H]2O[C@@H](C(=O)O)[C@@H](O[C@H]3O[C@H](COS(=O)(=O)O)[C@@H](O[C@@H]4O[C@H](C(=O)O)[C@@H](O[C@H]5O[C@H](COS(=O)(=O)O)[C@@H](OC)[C@H](OC)[C@H]5OC)[C@H](OC)[C@H]4OC)[C@H](OS(=O)(=O)O)[C@H]3OS(=O)(=O)O)[C@H](OC)[C@H]2OC)[C@H](OS(=O)(=O)O)[C@H]1OS(=O)(=O)O [idraparinux]
- oral bioavailability [2]: low oral bioavailability

Compound: enoxaparin
- oral bioavailability [2]: low oral bioavailability

Compound: CC(=N)N1CC[C@H](Oc2ccc([C@H](Cc3ccc4ccc(C(=N)N)cc4c3)C(=O)O)cc2)C1 [DX-9065]
- oral bioavailability [2]: low oral bioavailability

Compound: O=C(NC[C@H]1CN(c2ccc(N3CCOCC3=O)cc2)C(=O)O1)c1ccc(Cl)s1 [Rivaroxaban, rivaroxaban]
- glucose intolerance index (30 min to 90 min after glucose administration), HFD-induced increase (HFD C57/BL6 mice [1]; 5 mg/kg Rivaroxaban oral gavage, FIG. 4): reduced
- diabetes and glucose intolerance index (30 min before to 90 min after glucose administration) (HFD C57/BL6 mice [1]; 5 mg/kg Rivaroxaban oral gavage, vs HFD saline mice, FIG. 5): significant reduction
- blood glucose concentration following oral glucose challenge (OGTT) (HFD C57/BL6 mice [1]; oral Rivaroxaban 1, 2.5 or 5 mg/kg, vs HFD mice gavaged with saline, glucose 1.5 g/kg, FIG. 3): reduced
- antithrombotic effects (mouse model of diabetes): displayed antithrombotic effects
- bacterial translocation (number of 16S rDNA copies in mesenteric adipose tissue) (HFD mice): reduce bacterial translocation
- fasting glycemia (increase induced by high fat diet) (HFD C57/BL6 mice [3]; HFD C57/BL6 mice, Rivaroxaban 1, 2.5 or 5 mg/kg oral gavage, FIG. 2): abolished

Source: US10213434B2, “Use of factor Xa inhibitors for regulating glycemia” (VAIOMER, priority 2015, dated 2019)
